Patent US4347178A, “Compounds and methods of making” (Burroughs Wellcome Co., priority 1980, dated 1982)

Assays:
anti-compound 1 sera = test: RIA of bupropion using compound 6 with anti-compound 1 sera; assay type: biochemical
Description: Samples of six standard solutions of bupropion in blank plasma having concentrations of 0.39 to 50 ng/ml) are pipetted (0.1 ml each) in duplicate into 12×75 mm plastic tubes. Duplicate non-specific binding (no antibody) and maximum binding tubes (no unlabeled bupropion) receive 0.1 ml blank plasma. Spiked plasma controls at several concentrations of (e.g., 1.0, 10.0, and 100 ng/ml) and plasma samples for assay (diluted into the standard range with blank plasma if necessary) are assayed in duplicate. After being placed in an ice bath, all tubes receive (in order) 0.2 ml ^3 H bupropion (416 pg. containing approximately 10^4 cpm) and 0.7 ml anti-bupropion serum (raised to a ring-functionalized immunogen according to the present invention) (at pre-determined dilutions such that approximately 40% of the ^3 H bupropion added is bound), both in assay buffer (0.05 M phosphate-bufferedisotonic saline, containing 0.01 M EDTA and 0.1% gelatin, pH 7.0). […] The supernatants, containing antibody-bound ^3 H bupropion are carefully decanted into liquid scintillation cocktail for quantitation of ^3 H. After counts (minus average non-specific binding cpm) are expressed as percentages of average maximum binding cpm, bupropion concentrations in plasma samples and spiked controls are read from a standard curve (log concentration vs percent average maximum binding). […]

[1] = tested on: anti-compound 2 sera and anti-compound 3 sera; test: RIA of bupropion using 125I-labeled bupropion competitors with anti-compound 2 sera and anti-compound 3 sera; assay type: biochemical; details: for RIA sensitivity compared with the compound 10 system: substitution of 7 or 8 as competitor, anti-compound 2 and anti-compound 3 sera
Description: Samples of six standard solutions of bupropion in blank plasma having concentrations of 0.39 to 50 ng/ml) are pipetted (0.1 ml each) in duplicate into 12×75 mm plastic tubes. Duplicate non-specific binding (no antibody) and maximum binding tubes (no unlabeled bupropion) receive 0.1 ml blank plasma. Spiked plasma controls at several concentrations of (e.g., 1.0, 10.0, and 100 ng/ml) and plasma samples for assay (diluted into the standard range with blank plasma if necessary) are assayed in duplicate. After being placed in an ice bath, all tubes receive (in order) 0.2 ml ^3 H bupropion (416 pg. containing approximately 10^4 cpm) and 0.7 ml anti-bupropion serum (raised to a ring-functionalized immunogen according to the present invention) (at pre-determined dilutions such that approximately 40% of the ^3 H bupropion added is bound), both in assay buffer (0.05 M phosphate-bufferedisotonic saline, containing 0.01 M EDTA and 0.1% gelatin, pH 7.0). Non-specific binding tubes receive 0.7 ml assay buffer.) Following incubation either at 25° C. for 2 hours or overnight at 4° C., bound and free ^3 H bupropion are separated by incubation for 10 min at 0° C. with 0.5 ml ice-cold dextran-coated charcoal solution (0.25% dextran, 5 mg/ml charcoal, in assay buffer) followed by centrifugation for 10 minutes at 4° C. […] The supernatants, containing antibody-bound ^3 H bupropion are carefully decanted into liquid scintillation cocktail for quantitation of ^3 H. After counts (minus average non-specific binding cpm) are expressed as percentages of average maximum binding cpm, bupropion concentrations in plasma samples and spiked controls are read from a standard curve (log concentration vs percent average maximum binding).
RIA's have been run according to the method of Example X utilizing ^125 I labeled bupropion competitors of the present invention in conjunction with antisera obtained following immunization with immunogens of the present invention. […] Following the ethanol precipation of antibody-bound ^125 I-bupropion competitior at equilibrium, ^125 I in the protein pellets was quantified.

Compound | RIA sensitivity compared with the compound 10 system [1] | also measured
CC(NC(C)(C)C)C(=NOCC(=O)NCCc1ccc(O)c([125I])c1)c1cccc(Cl)c1 (stereo not drawn) [compound 6, α-t-Butylamino-3-chloropropiophenone-carboxymethyloxime-^125 I-tyramine amide] | – | RIA sensitivity (anti-compound 1 sera): least sensitive RIA
CC(NC(C)(C)C)C(=O)c1ccc(OCC(=O)NCCc2ccc(O)c([125I])c2)c(Cl)c1 (stereo not drawn) [compound 7, α-t-Butylamino-3-chloro-4-carbomethoxypropiophenone-^125 I-tyramine amide] | approximately equal to that obtained with the compound 10 system | –
CC(NC(C)(C)C)C(=O)c1ccc(CCCOC(=O)CCC(=O)NCCc2ccc(O)c([125I])c2)c(Cl)c1 (stereo not drawn) [compound 8, α-t-Butylamino-3-chloro-4-γ-hydroxypyropylpropiophenone-hemisuccinate-^125 I-tyramine amide] | approximately equal to that obtained with the compound 10 system | –
CC(NC(C)(C)C)C(=O)c1ccc(O)c([125I])c1 (stereo not drawn) [compound 9, ^125 I-α-t-Butylamino-3-iodo-4-hydroxypropiophenone] | – | RIA sensitivity relative to the compound 10 (3H bupropion) assay system ([1]; in conjunction with either antisera (anti-compound 2 or anti-compound 3)): approximately ten
